Patent US20100086931A1, “METHOD FOR ASSAYING ACTION OF ANTITUMOR AGENT USING DECREASE IN GENE EXPRESSION LEVEL AS INDEX” (Eisai R&D Management Co., Ltd., priority 2007, published 2010)

Tested on: human colon carcinoma cell strain WiDr
Experiment: Microarray analysis (Human Genome U133 plus 2.0 array) of mRNA expression in WiDr cells treated with compound A
Type: cell-based
Settings: 2.8 nM, 6 h, ratio to control
Procedure: Microarray analysis (Human Genome U133 plus 2.0 array: Affymetrix) was carried out using RNA purified from human colon carcinoma cell strain WiDr treated with 2.8 nM and 14 nM of (8E,12E,14E)-7-((4-Cycloheptylpiperazin-1-yl)carbonyl)oxy-3,6,16,21-tetrahydroxy-6,10,12,16,20-pentamethyl-18,19-epoxytricosa-8,12,14-trien-11-olide (hereinafter also referred to as “compound A”) for six hours.
WiDr cells were first suspended in RPMI1640 medium (containing 10% FBS, penicillin, and streptomycin) and seeded in a 10 cm dish (2×10^6 cells/dish). After an overnight culture in an incubator with 5% carbon dioxide gas at 37° C., the medium was changed with medium containing 2.8 nM and 14 nM of compound A or containing vehicle alone. After cultured additional six hours, TRI reagent (SIGMA) was added to cells, and the cells were harvested. RNA was purified in accordance with the protocol of TRI reagent, followed by further purification with RNeasy (QIAGEN). Absorbance at 260 nm was measured to quantify an amount of RNA.
Subsequently, single stranded cDNA synthesis, double stranded cDNA synthesis, biotin-labeled cRNA synthesis, and cRNA fragmentation in order were carried out from 5-10 μg (WiDr 10 μg, PBMC 5 μg) of total RNA from the control cells and the treated cells, by using One-Cycle Target Labeling and Control Reagents (Affymetrix). cRNA probe was used for hybridization with Human Genome U133 Plus 2.0 Array (Affymetrix). The array was then washed and stained, and luminescence intensity was measured by a scanner.
The RMA method was applied to 33 of .cel files obtained in the microarray experiment and log signal intensity at a gene level normalized with log signal intensity at a probe level was obtained. By subtracting the mean between control 1 and control 3 from the mean between log signal intensity 1 and log signal intensity 3 for each case, the log signal intensity was converted into a log signal ratio to the control. A t-test was conducted between each log signal intensity and control, and candidate genes were narrowed down in the basis of a p-value, a log signal ratio, and a signal value. Specifically, genes showing that the P value was 5% or less; the expression level in the untreated (control) is 100 or more by signal value; and the expression level when treated with both 2.8 nM and 14 nM of compound A is, compared to the control, 25% or less, were picked out. The software used is R2.2.1 (http://www.r-project.org/), affy package 1.8.1 (http://www.bioconductor.org).
Genes showing that, by the treatment with compound A, the P value was 5% or less; the expression level in the untreated (control) is 100 or more by signal value; and the expression level when treated with both 2.8 nM and 14 nM of compound A is, compared to the control, 25% or less, and results thereof were shown in Table 1. Probe ID used in Table 1 represents Human Genome U133 Plus 2.0 Array Probeset ID. In Table 1, for each gene evaluated, gene name (Gene Name), abbreviated name (Gene Symbol), accession number (Accession), alias name (Synonym), Probe set number in Human Genome U133 Plus 2.0 Array (Human Genome U133 Plus 2.0 Array Probeset ID), the expression level upon the six-hour treatment with 2.8 nM of E7107 (2.8 nM (6 h)), and the expression level upon the six-hour treatment with 14 nM of E7107 (14 nM (6 h)) were respectively shown.

Structure (SMILES): CCC(O)C(C)C1OC1CC(C)(O)/C=C/C=C(\C)C1OC(=O)CC(O)CCC(C)(O)C(OC(=O)N2CCN(C3CCCCCC3)CC2)/C=C/C1C (stereo not drawn) [E7107, (8E,12E,14E)-7-((4-Cycloheptylpiperazin-1-yl)carbonyl)oxy-3,6,16,21-tetrahydroxy-6,10,12,16,20-pentamethyl-18,19-epoxytricosa-8,12,14-trien-11-olide]
- ADPRHL2 mRNA expression level (223097_at): 0.23
- ANGEL2 mRNA expression level (221825_at): 0.22
- ARMC8 mRNA expression level (203486_s_at): 0.20
- ATP2A2 mRNA expression level (212361_s_at): 0.24
- ATP2B1 mRNA expression level (212930_at): 0.20
- ATP6V0A2 mRNA expression level (205704_s_at): 0.17
- BPTF mRNA expression level (232909_s_at): 0.20
- C1orf63 mRNA expression level (209006_s_at): 0.15
- C1orf79 mRNA expression level (223774_at): 0.16
- C1orf82 mRNA expression level (222893_s_at): 0.20
- C5orf28 mRNA expression level (219029_at): 0.20
- C6orf136 mRNA expression level (227455_at): 0.23
- C7orf23 mRNA expression level (204215_at): 0.12
- C7orf36 mRNA expression level (223433_at): 0.16
- C7orf49 mRNA expression level (220949_s_at): 0.20
- C12orf32 mRNA expression level (225837_at): 0.19
- C15orf40 mRNA expression level (1552310_at): 0.17
- C17orf80 mRNA expression level (223351_at): 0.22
- C20orf112 mRNA expression level (225224_at): 0.24
- CARD10 mRNA expression level (210026_s_at): 0.23
- CASC5 mRNA expression level (228323_at): 0.24
- CCDC14 mRNA expression level (225017_at): 0.21
- CCNE2 mRNA expression level (205034_at): 0.22
- CDC6 mRNA expression level (203967_at): 0.13
- CDC7 mRNA expression level (204510_at): 0.18
- CDNA FLJ34214 fis, clone FCBBF3021807 mRNA expression level (227087_at): 0.24
- CLDND1 mRNA expression level (208925_at): 0.16
- CLIP1 mRNA expression level (201975_at): 0.24
- DAPK1 mRNA expression level (203139_at): 0.09
- DNAJC16 mRNA expression level (212908_at): 0.24
- E2F7 mRNA expression level (228033_at): 0.22
- EHBP1 mRNA expression level (212653_s_at): 0.16
- ELL3 mRNA expression level (219518_s_at): 0.24
- ERCC3 mRNA expression level (202176_at): 0.25
- EVI1 mRNA expression level (226420_at): 0.17
- FAM86C mRNA expression level (65585_at): 0.19
- FANCL mRNA expression level (218397_at): 0.15
- FBXL5 mRNA expression level (209004_s_at): 0.19
- FCHO2 mRNA expression level (228220_at): 0.24
- FGF19 mRNA expression level (223761_at): 0.10
- FKSG44 mRNA expression level (227964_at): 0.11
- FLJ20628 mRNA expression level (221229_s_at): 0.16
- FRY mRNA expression level (204072_s_at): 0.23
- Full-length cDNA clone CS0DL007YI24 of B cells (Ramos cell line) mRNA expression level (226648_at): 0.22
- GRHL1 mRNA expression level (222830_at): 0.24
- HDAC4 mRNA expression level (204225_at): 0.21
- INTS7 mRNA expression level (222250_s_at): 0.24
- IREB2 mRNA expression level (225892_at): 0.12
- IXL mRNA expression level (225708_at): 0.20
- JAGN1 mRNA expression level (223104_at): 0.15
- JUB mRNA expression level (225806_at): 0.25
- KCNE3 mRNA expression level (227647_at): 0.20
- KIAA0323 mRNA expression level (212355_at): 0.23
- KIAA0776 mRNA expression level (212633_at): 0.18
- KIAA0859 mRNA expression level (212405_s_at): 0.17
- KIF2C mRNA expression level (211519_s_at): 0.20
- KIF21A mRNA expression level (226003_at): 0.18
- KIN mRNA expression level (205664_at): 0.22
- KLHL12 mRNA expression level (225068_at): 0.20
- LIPG mRNA expression level (219181_at): 0.21
- LOC51315 mRNA expression level (218303_x_at): 0.11
- LOC124512 mRNA expression level (225808_at): 0.15
- MASTL mRNA expression level (228468_at): 0.23
- MCM10 mRNA expression level (220651_s_at): 0.11
- METTL3 mRNA expression level (209265_s_at): 0.24
- METTL4 mRNA expression level (219698_s_at): 0.22
- MKRN1 mRNA expression level (201285_at): 0.20
- MLL2 mRNA expression level (227527_at): 0.21
- MND1 mRNA expression level (223700_at): 0.17
- MYOHD1 mRNA expression level (225947_at): 0.20
- NCOA5 mRNA expression level (225145_at): 0.20
- NIN mRNA expression level (225921_at): 0.22
- NOC3L mRNA expression level (218889_at): 0.23
- NPC1 mRNA expression level (202679_at): 0.24
- NR2C1 mRNA expression level (204791_at): 0.15
- NUPL1 mRNA expression level (223984_s_at): 0.12
- NUPL2 mRNA expression level (204003_s_at): 0.21
- ORC5L mRNA expression level (204957_at): 0.23
- PAXIP1 mRNA expression level (212825_at): 0.23
- PCGF1 mRNA expression level (210023_s_at): 0.21
- PHACTR4 mRNA expression level (226823_at): 0.25
- PHF20L1 mRNA expression level (226942_at): 0.24
- PIK3C3 mRNA expression level (204297_at): 0.23
- PLEKHA5 mRNA expression level (220952_s_at): 0.16
- PMS1 mRNA expression level (213677_s_at): 0.22
- POLD3 mRNA expression level (212836_at): 0.16
- POLR3E mRNA expression level (222490_at): 0.18
- PPM1B mRNA expression level (209296_at): 0.24
- PPWD1 mRNA expression level (213483_at): 0.21
- RAD54B mRNA expression level (219494_at): 0.18
- RBBP6 mRNA expression level (212783_at): 0.17
- RBM17 mRNA expression level (224780_at): 0.21
- RBMS1 mRNA expression level (209868_s_at): 0.17
- REPS1 mRNA expression level (224366_s_at): 0.22
- RFC4 mRNA expression level (204023_at): 0.13
- RIF1 mRNA expression level (226821_at): 0.13
- RPS6KC1 mRNA expression level (218909_at): 0.23
- SFXN1 mRNA expression level (230069_at): 0.17
- SHPRH mRNA expression level (226366_at): 0.19
- SLC17A5 mRNA expression level (223441_at): 0.24
- SLC25A19 mRNA expression level (223222_at): 0.25
- SLC37A1 mRNA expression level (218928_s_at): 0.22
- SMEK2 mRNA expression level (226230_at): 0.19
- SMUG1 mRNA expression level (218685_s_at): 0.24
- STAMBPL1 mRNA expression level (227606_s_at): 0.19
- STXBP3 mRNA expression level (203310_at): 0.19
- SYTL2 mRNA expression level (232914_s_at): 0.18
- TAF4 mRNA expression level (213090_s_at): 0.21
- TMEM177 mRNA expression level (218897_at): 0.24
- TNS3 mRNA expression level (217853_at): 0.20
- TRIM31 mRNA expression level (210159_s_at): 0.25
- TRIP4 mRNA expression level (203732_at): 0.21
- TSEN2 mRNA expression level (219581_at): 0.13
- TTC4 mRNA expression level (46167_at): 0.22
- TUBGCP3 mRNA expression level (203690_at): 0.16
- Transcribed locus mRNA expression level (230098_at): 0.17
- Transcribed locus mRNA expression level (230177_at): 0.18
- Transcribed locus mRNA expression level (235609_at): 0.21
- Transcribed locus, moderately similar to XP_518244.1 mRNA expression level (235046_at): 0.11
- Transcribed locus, strongly similar to NP_002194.1 integrin alpha 2 precursor mRNA expression level (227314_at): 0.24
- Transcribed locus, strongly similar to NP_689873.1 mRNA expression level (228638_at): 0.16
- UNC50 mRNA expression level (203583_at): 0.10
- WBP4 mRNA expression level (203598_s_at): 0.17
- WDR26 mRNA expression level (218107_at): 0.24
- WDR67 mRNA expression level (214061_at): 0.09
- ZC3HAV1L mRNA expression level (228280_at): 0.23
- ZCCHC6 mRNA expression level (220933_s_at): 0.18
- ZKSCAN1 mRNA expression level (214670_at): 0.21
- ZMIZ1 mRNA expression level (212124_at): 0.16
- ZNF518 mRNA expression level (204291_at): 0.18
- mRNA expression level, probeset 228106_at (gene name not given): 0.21
- mRNA expression level, probeset 235436_at (gene name not given): 0.21
